# Test results published in paper PMC5125615 (Biochemistry, 2015).
# Substitutions are numbered along the chain they refer to.
# Key:
# RsTSPO [1] = molecular target: T1, RsTSPO (Cereibacter sphaeroides, UniProt Q9RFC8); assay: binding to purified protein; details: affinity value, symbol not given
# T1 sequence (Q9RFC8 1-158): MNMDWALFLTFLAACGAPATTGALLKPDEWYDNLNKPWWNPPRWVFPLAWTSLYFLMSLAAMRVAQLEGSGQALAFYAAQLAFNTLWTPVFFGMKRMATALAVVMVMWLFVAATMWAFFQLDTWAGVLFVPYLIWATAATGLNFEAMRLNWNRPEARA
# RsTSPO [2] = molecular target: T2, RsTSPO (Cereibacter sphaeroides, UniProt Q9RFC8, A136L/A138F/T137A); assay: binding to purified protein
# T2 sequence (Q9RFC8 1-158 A136L/T137A/A138F): T1 sequence (Q9RFC8 1-158) with A136L, T137A, A138F
# RsTSPO [3] = molecular target: T1, RsTSPO; assay: fluorescence quenching; format: binding; details: affinity value, symbol not given
# RsTSPO [4] = molecular target: T2, RsTSPO; assay: fluorescence quenching; format: binding
# RsTSPO [5] = molecular target: T2, RsTSPO; assay: binding to purified protein; remark: listed apart in the source
# RsTSPO [6] = molecular target: T1, RsTSPO; assay: binding to purified protein
smiles,measurement,setting,value
C=CC1=C(C)c2cc3[nH]c(cc4nc(cc5[nH]c(cc1n2)c(C)c5CCC(=O)O)C(CCC(=O)O)=C4C)c(C)c3C=C [protoporphyrin IX],Kd,RsTSPO [1],0.31 ± 0.01 µM
same,Kd,RsTSPO [2],1.1 ± 0.1 µM
CCC(C)N(C)C(=O)c1cc2ccccc2c(-c2ccccc2Cl)n1 (stereo not drawn) [PK11195],Kd,RsTSPO [3],10 ± 1 µM
same,Kd,RsTSPO [4],15 ± 4 µM
CC(C)CCC[C@@H](C)[C@H]1CC[C@H]2[C@@H]3CC=C4C[C@@H](O)CC[C@]4(C)[C@H]3CC[C@]12C [cholesterol],Kd,RsTSPO [5],~0.02 µM
same,Kd,RsTSPO [6],~80 µM
